Assays:
[1] = molecular target: T1, Recombinant Hepatic Lipase (Homo sapiens, UniProt P11150); experiment: Hepatic Lipase Phospholipase Assay; type: biochemical; conditions: ThioPEG substrate, DTNB read at 412 nm, pH 8.3, 37° C., HL 12.5 nM
T1 construct: made in house; host or cells: AV12 cells
T1 sequence (P11150 23-499): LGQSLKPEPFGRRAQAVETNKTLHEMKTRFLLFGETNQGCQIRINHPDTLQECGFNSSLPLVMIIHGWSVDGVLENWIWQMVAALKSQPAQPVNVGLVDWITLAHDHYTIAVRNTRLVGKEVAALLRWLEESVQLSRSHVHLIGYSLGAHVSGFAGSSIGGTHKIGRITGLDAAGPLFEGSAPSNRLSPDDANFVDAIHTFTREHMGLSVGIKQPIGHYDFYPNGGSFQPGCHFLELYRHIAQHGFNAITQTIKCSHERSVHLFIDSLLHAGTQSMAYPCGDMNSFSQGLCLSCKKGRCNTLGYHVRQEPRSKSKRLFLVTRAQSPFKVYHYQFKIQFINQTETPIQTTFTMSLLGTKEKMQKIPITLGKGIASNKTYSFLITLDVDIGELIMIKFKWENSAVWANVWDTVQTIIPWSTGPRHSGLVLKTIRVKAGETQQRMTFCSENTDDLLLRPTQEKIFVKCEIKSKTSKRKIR
Method: Hepatic Lipase Phospholipase Assay
Efficacy was determined by testing various compounds of the invention in a hepatic lipase and/or endothelial lipase assay discussed below, and disclosed in U.S. patent application Ser. No. 09/609, 871 filed Jul. 3, 2000 incorporated herein in its entirety for U.S Patent Office purposes.
• Substrate Buffer A: 100 mM Hepes, pH 8.3 at 37° C. • Substrate Buffer B: 100 mM Hepes, pH 8.3 at 37° C. with 6.83 mM Triton X100 • ThioPEG: Molecular wt. of 540 • Recombinant Hepatic Lipase • Thiophospholipid: about 0.42 mM thiophospholipid in chloroform • DTNB Solution: about […] DTNB in DMSO (dimethyl sulfoxide) Hepes Buffer A
For Hepes Buffer A, there is 2.4 g Hepes/100 mL water. Therefore 36 grams of Hepes is dissolved in 1500 mL of water. The mix solution's pH is adjusted to pH83 at 37° C. and brought up to 1500 mL with water. 500 mL of Buffer A is retained for the Protein Buffer.
To the remaining 1000 mL of Hepes Buffer A, 4.49 g of Triton X-100 is added and then the combination mixed on a stir plate. It is optimal that stock Buffer A not be too cold or Triton X-100 will take a long time to go into solution
For 0.42 mM substrate stock, use 0.227 mg of thioPEG/mL of Substrate Buffer B. Approximately 20 mg of sn-1 thiol substituted Phosphatidyl Ethylene Glycol (see Examples for preparation method) is weighed into a vial, such as a scintillation vial. Enough chloroform should be added to make a 2.043 mg/mL solution. Sonicate the solution briefly until well dissolved. Next, pipette 1 mL of chloroform/substrate solution into each scintillation vial. This should give enough substrate for one full 96 well plate. Each vial is dried with nitrogen until solvent removed, swirling each vial simultaneously such that a thin film of substrate will be easily reconstituted in each buffer. Each vial is then frozen.
Daily stock preparation is-performed for 9 mL of substrate (one microtiter plate). On the day of the assay, the substrate vial is removed from the freezer and combined with 9 mL of pre-warmed (37° C.) substrate buffer (the final concentration is 0.227 mg/mL). Place the buffer in a 37° C. water bath. Sonicate for 5 minutes or vortex until solution is clear before use.
The enzyme is stored at −80° C. in 100 or 50 μL portions. A 0.406 mg/mL recombinant hepatic lipase and/or endothelial lipase stock requires a 50-fold dilution. Therefore, to a 50 μl or 100 μl enzyme aliquot, 2450 μl or 4900 μl, respectively, of substrate Buffer A (protein buffer) should be added. The enzyme should then be stored on ice until ready to use. The protein concentration of enzyme is about 0.406 mg/mL.
To make a 20 mg/mL stock solution, 2-3 mg of DTNB is weighed and then mixed with an appropriate amount of 100% DMSO (dimethyl sulfoxide) to make the desired concentration. This mixture is sonicated for five minutes.
The above solution should be diluted 10 fold with substrate Buffer B (concentration now 2 mg/mL). Then to the thioPEG substrate solution, add 60 μl of dilute DTNB per mL of thioPEG substrate solution. Thus for 9 mL of substrate, 540 microliters of dilute DTNB (final concentration in substrate solution=0.11 mg/mL).
The test compound is dissolved in pure DMSO at […]. As shown below in Table 2, assay concentrations are 10, 1, 0.1, 0.33, 0.011, 0.0037, 0.0012 and 0.00041 μM.
Using a spectrometer, DTNB is used as a thiol coloring reagent with an incubator temperature of 37° C. Substrate Buffer B is placed in a 37° C. water bath to pre-warm. The substrate is removed from the freezer and 9 mL of substrate Buffer B, 100 mM Hepes, 6.83 mM Tx-100) is added, sonicated for 5 min. and then kept in a 37° C. water bath. Dilutions of the test compound are next made in preparation for assay.
10 μl of the diluted test compound are transferred via pipette into the wells. Control wells receive 10 μl each of 10% DMSO and enzyme solution, while blank wells receive 10 microliters of 10% DMSO and 10 microliters of saline (no enzyme). […]

Row | Compound | IC50 [1] | melting point
1 | CCCCCCNC(=O)n1sc2ccccc2c1=O | 724 ± 16 nM | –
2 | CC(C)CCCCNC(=O)n1sc2ccccc2c1=O | 622 ± 19 nM | –
3 | CCCCCCCNC(=O)n1sc2ccccc2c1=O | 757 ± 18 nM | –
4 | CCCCCCCCNC(=O)n1sc2ccccc2c1=O | 649 ± 17 nM | –
5 | CCCCCCCCCCCCNC(=O)n1sc2ccccc2c1=O | 933 ± 34 nM | –
6 | Cc1ccccc1CNC(=O)n1sc2ccccc2c1=O | 183 ± 6 nM | –
7 | Cc1cccc(CNC(=O)n2sc3ccccc3c2=O)c1 | 409 ± 14 nM | –
8 | Cc1ccc(CNC(=O)n2sc3ccccc3c2=O)cc1 | 671 ± 18 nM | –
9 | CC(C)NC(=O)n1sc2cc(Cl)ccc2c1=O | 626 ± 20 nM | –
10 | CCCCCNC(=O)n1sc2cc(Cl)ccc2c1=O | 532 ± 10 nM | –
11 | CCCCCCNC(=O)n1sc2cc(Cl)ccc2c1=O | 333 ± 8 nM | –
12 | O=C(NC1CCCCC1)n1sc2cc(Cl)ccc2c1=O | 419 ± 7 nM | –
13 | O=C(NCc1ccccc1)n1sc2cc(Cl)ccc2c1=O | 893 ± 48 nM | –
14 | CCNC(=O)n1sc2ccccc2c1=O [Example 1, 3-Oxo-3H-benzo[d]isothiazole-2-carboxylic acid ethylamide] | – | 123 to 124 °C
15 | CCCNC(=O)n1sc2ccccc2c1=O [Example 2, 3-Oxo-3H-benzo[d]isothiazole-2-carboxylic acid propylamide] | – | 90 to 91 °C
16 | C=CCNC(=O)n1sc2ccccc2c1=O [Example 3, 3-Oxo-3H-benzo[d]isothiazole-2-carboxylic acid allylamide] | – | 116 to 119 °C
17 | CCCCCNC(=O)n1sc2ccccc2c1=O [Example 4, 3-Oxo-3H-benzo[d]isothiazole-2-carboxylic acid pentylamide] | – | 42 to 44 °C

The next lines start with the values.

Row | IC50 [1] | melting point | Compound
18 | – | 102 to 104 °C | CCc1cccc(C)c1CNC(=O)n1sc2ccccc2c1=O [Example 13, 3-Oxo-3H-benzo[d]isothiazole-2-carboxylic acid 2-ethyl-6-methyl-benzylamide]
19 | – | 102 to 103 °C | Cc1cccc(C(C)C)c1CNC(=O)n1sc2ccccc2c1=O [Example 14, 3-Oxo-3H-benzo[d]isothiazole-2-carboxylic acid 2-isopropyl-6-methyl-benzylamide]
20 | – | 153 to 155 °C | O=C(NCCc1ccccc1)n1sc2ccccc2c1=O [Example 15, 3-Oxo-3H-benzo[d]isothiazole-2-carboxylic acid phenethylamide]
21 | – | 109 to 111 °C | O=C(NCCCc1ccccc1)n1sc2ccccc2c1=O [Example 17, 3-Oxo-3H-benzo[d]isothiazole-2-carboxylic acid (3-phenyl-propyl)-amide]
22 | – | 119 to 120 °C | O=C(NCCCCc1ccccc1)n1sc2ccccc2c1=O [Example 18, 3-Oxo-3H-benzo[d]isothiazole-2-carboxylic acid (4-phenyl-butyl)-amide]
23 | – | 76 to 78 °C | O=C(NCCCCC1CCCCC1)n1sc2ccccc2c1=O [Example 19, 3-Oxo-3H-benzo[d]isothiazole-2-carboxylic acid (4-cyclohexyl-butyl)-amide]
24 | 879 ± 24 nM | – | CCCCCNC(=O)n1sc2ccccc2c1=O [drawing 9]
25 | 237 ± 4 nM | – | CCc1cccc(C)c1CNC(=O)n1sc2ccccc2c1=O [drawing 18]
26 | 238 ± 13 nM | – | Cc1cccc(C(C)C)c1CNC(=O)n1sc2ccccc2c1=O [drawing 19]
27 | 430 ± 19 nM | – | O=C(NCCCc1ccccc1)n1sc2ccccc2c1=O [drawing 20]
28 | 458 ± 16 nM | – | O=C(NCCCCc1ccccc1)n1sc2ccccc2c1=O [drawing 21]
29 | 482 ± 21 nM | – | O=C(NCCCCC1CCCCC1)n1sc2ccccc2c1=O [drawing 22]

Reference: patent publication US7595403B2, “Benzisothiazol-3-one-carboxylic acid amides as phospholipase inhibitors” (Eli Lilly and Company, priority 2003, dated 2009)
